From patent USRE39866E1 (Telik, Inc., priority 1997, dated 2007)
Read-outs that look alike come from different tables or passages of the source.

Assays:
[1] = molecular target: T1, insulin receptor on human lymphocytic cell line IM-9 (Homo sapiens, UniProt P06213); experiment: insulin receptor agonist activity on whole IM-9 cells (lysate ELISA); type: cell-based
T1 construct: on whole cells, i.e., on the human lymphocytic cell line IM-9; endogenous in cells; host or cells: IM-9 human lymphocytic cell line
T1 sequence (P06213 763-1382 limits assumed): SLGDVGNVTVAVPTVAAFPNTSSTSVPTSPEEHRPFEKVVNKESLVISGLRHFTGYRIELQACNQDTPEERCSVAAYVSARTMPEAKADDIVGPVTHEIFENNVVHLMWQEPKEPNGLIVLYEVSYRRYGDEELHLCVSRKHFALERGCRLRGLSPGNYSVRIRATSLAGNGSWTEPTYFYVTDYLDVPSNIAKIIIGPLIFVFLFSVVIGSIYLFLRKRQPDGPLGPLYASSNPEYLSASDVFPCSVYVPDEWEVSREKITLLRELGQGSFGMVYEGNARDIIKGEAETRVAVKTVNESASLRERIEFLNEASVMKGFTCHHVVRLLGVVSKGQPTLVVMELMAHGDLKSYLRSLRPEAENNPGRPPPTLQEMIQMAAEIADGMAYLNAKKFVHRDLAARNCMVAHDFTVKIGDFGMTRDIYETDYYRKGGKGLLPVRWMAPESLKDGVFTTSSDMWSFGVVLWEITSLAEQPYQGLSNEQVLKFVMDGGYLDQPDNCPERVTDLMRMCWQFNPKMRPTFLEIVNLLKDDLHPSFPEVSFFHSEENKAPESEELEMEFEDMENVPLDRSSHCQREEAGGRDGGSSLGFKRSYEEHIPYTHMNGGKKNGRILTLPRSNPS
T1 sequence (P06213 28-758 partner limits assumed): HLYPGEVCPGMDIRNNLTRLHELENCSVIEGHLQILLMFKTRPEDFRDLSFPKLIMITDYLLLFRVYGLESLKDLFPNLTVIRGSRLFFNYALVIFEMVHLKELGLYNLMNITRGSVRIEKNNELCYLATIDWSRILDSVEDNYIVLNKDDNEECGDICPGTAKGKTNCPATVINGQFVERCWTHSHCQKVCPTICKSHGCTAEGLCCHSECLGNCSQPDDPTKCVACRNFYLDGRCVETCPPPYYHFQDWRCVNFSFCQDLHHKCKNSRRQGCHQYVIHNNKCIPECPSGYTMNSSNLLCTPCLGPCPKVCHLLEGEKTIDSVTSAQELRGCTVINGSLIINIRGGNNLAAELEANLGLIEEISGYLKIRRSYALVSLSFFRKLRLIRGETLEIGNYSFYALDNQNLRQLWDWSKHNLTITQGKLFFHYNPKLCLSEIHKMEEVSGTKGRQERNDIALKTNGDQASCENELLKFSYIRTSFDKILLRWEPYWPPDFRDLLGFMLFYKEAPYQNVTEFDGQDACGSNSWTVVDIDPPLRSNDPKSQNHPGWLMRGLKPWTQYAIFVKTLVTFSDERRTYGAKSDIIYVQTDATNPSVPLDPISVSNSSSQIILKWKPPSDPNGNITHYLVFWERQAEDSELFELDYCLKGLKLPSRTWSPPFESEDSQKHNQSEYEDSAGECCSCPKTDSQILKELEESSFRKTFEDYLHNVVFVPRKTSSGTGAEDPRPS
Protocol: The cells were then lysed in 0.5% Tween 20 and lysates analyzed in an ELISA assay as described in paragraph A, without the steps of incubation with ATP.

[2] = molecular target: T2, recombinantly produced β chain lacking the insulin-binding domain (Homo sapiens, UniProt P06213); experiment: phosphorylation of substrate peptide Raytide by recombinant beta chain kinase; type: biochemical; conditions: 25 μM
T2 construct: purchased Stratagene, Inc
T2 sequence (P06213 763-1382 limits assumed): as the sequence (P06213 763-1382 limits assumed) above
Protocol: The ability of this kinase to phosphorylate a substrate peptide (Raytide from Oncogene Sciences) is stimulated by TER12 at 25 μM.

[3] = molecular target: T3, human insulin receptors (hIR) (Homo sapiens, UniProt P06213); experiment: insulin receptor kinase autophosphorylation assay (captured hIR, anti-phosphotyrosine ELISA); type: biochemical; conditions: for agonist activity in IR kinase assay (in words): samples as screened; for activity in IR kinase assay after synthesis or purification: synthesized or extensively purified / HPLC-purified material
T3 construct: partially purified from placental extracts or from cell line IM-9; from tissue; host or cells: human placental extracts or cell line IM-9
T3 sequence (P06213 763-1382 limits assumed): as above
T3 sequence (P06213 28-758 partner limits assumed): as the sequence (P06213 28-758 partner limits assumed) above
Protocol: This assay is a modified form of that described in Hagino, H. et al. Diabetes (1994) 43:274-280. […] The partially purified hIRs were captured into microplate wells by incubating them for 90 minutes with wells coated with a monoclonal antibody to hIR. […] After 60 minutes, the wells were washed, and then treated for 60 minutes with biotinylated antibody directed against phosphotyrosine (PY-20) and unbound materials again washed away. The wells were then incubated with a conventional streptavidin peroxidase system for 30 minutes to assess the level of phosphorylated tyrosine.

[4] = tested on: 3T3-L1 fibroblast cells; experiment: glucose transport in 3T3-L1 cell line; type: cell-based
From the text: (§1) Insulin also enhances glucose transport in this cell line.

[5] = tested on: 3T3-L1 fibroblast cells; experiment: differentiation of 3T3-L1 fibroblasts to adipocyte-like morphology (Oil Red O uptake); type: cell-based
From the text: as §1

[6] = molecular target: T4, human insulin receptor (Homo sapiens, UniProt P06213); experiment: phosphorylation of artificial substrate poly(Glu4Tyr) by activated receptor, labeled ATP; type: biochemical
T4 construct: partially purified from placental extracts or from cell line IM-9; from tissue; host or cells: human placental extracts or cell line IM-9
T4 sequence (P06213 763-1382 limits assumed): as the sequence (P06213 763-1382 limits assumed) above
T4 sequence (P06213 28-758 partner limits assumed): as the sequence (P06213 28-758 partner limits assumed) above

[7] = tested on: Glut4 transporter in 3T3-L1 adipocytes; experiment: distribution of Glut4 transporter in 3T3-L1 adipocytes (immunofluorescence); type: cell-based; conditions: 15 minutes incubation
From the text: The results were visualized under a fluorescent microscope.

increase of basal insulin receptor kinase activity ([1]; 5 minutes exposure, sample containing 20 μM TER12)	increase of insulin stimulated insulin receptor kinase activity ([1]; 5 minutes exposure, sample containing 20 μM TER12, with insulin)	stimulation of kinase phosphorylation of Raytide [2]	increase in phosphorylation on addition to insulin ([3]; 60 μM sample added to hIR contacted with 0.3 nM insulin)	stimulation of autophosphorylation ([3]; absence of insulin, 20 μM of sample composed mainly of TER12)	EC50 ([3]; read-out: EC50 for enhancing insulin stimulation, sample calculated as TER12) [µM]	agonist activity in IR kinase assay (in words) [3]	activity in IR kinase assay after synthesis or purification [3]	percent of maximal phosphorylation ([6]; 0.5 nM insulin plus 20 μM TER12 sample) [%]	percent of maximal phosphorylation ([6]; 5 nM insulin plus TER12 sample) [%]	percent of maximal insulin-stimulated activity ([6]; about 20 μM sample calculated as TER12, no insulin) [%]	enhancement of insulin-stimulated autophosphorylation of insulin receptor ([1]; intact IM-9 cells)	activity in IR kinase assay of insoluble compound ([3]; insoluble compound after washing sample with aqueous sodium carbonate)	EC50 ([3]; read-out: EC50 in in vitro autophosphorylation assay) [µM]	Molecule	stimulation of glucose transport ([4]; sample alone)	effect on insulin-stimulated glucose transport ([4]; with insulin)	effect on insulin-induced differentiation ([5]; 20 μM with insulin)	effect on differentiation ([5]; sample alone)	redistribution of Glut4 [7]
two-fold	five-fold	stimulated	approximately three-fold	over five-fold	~20	apparent agonist activity	active	120	140	75				O=C(Nc1cc(S(=O)(=O)[O-])cc2cc(S(=O)(=O)[O-])c(N=Nc3cc(Nc4nc(Cl)nc(Nc5ccc(S(=O)(=O)[O-])cc5)n4)ccc3S(=O)(=O)[O-])c(O)c12)c1ccccc1.[Na+].[Na+].[Na+].[Na+] [TER12, Cibacron Brilliant Red 3BA]	failed to stimulate glucose transport significantly	enhanced the ability of insulin to do so	enhances the differentiating effect of insulin	does not appear to effect differentiation	
						agonist activity	retained its activity				enhanced the activity of insulin	less active	8	COc1ccccc1NC(=O)C(N=Nc1ccc(-c2nc3ccc(C)c(S(=O)(=O)[O-])c3s2)cc1S(=O)(=O)[O-])C(C)=O.[Na+].[Na+] (stereo not drawn) [TER3938, Direct Yellow 27]					
														insulin					dramatic redistribution of Glut4 to the membrane surfaces
